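Interpolation was linear, between the two tested concentrations surrounding the appropriate level; five concentrations were tested over 48 hours in 96-well plates. The concentration for 50% growth inhibition is given as GI50. TGI: total growth inhibition.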
Columns and labels:
Experiment in all cases: NCI anticancer screen, dose series, 48 h
BT-549 breast = tested on: BT-549 breast
UACC-62 melanoma = tested on: UACC-62 melanoma
SN12C renal = tested on: SN12C renal
IGROV1 ovarian = tested on: IGROV1 ovarian
SNB-19 CNS = tested on: SNB-19 CNS
MDA-MB-231 breast = tested on: MDA-MB-231 breast
LOX IMVI melanoma = tested on: LOX IMVI melanoma
OVCAR-4 ovarian = tested on: OVCAR-4 ovarian
MOLT-4 leukemia = tested on: MOLT-4 leukemia
SF-268 CNS = tested on: SF-268 CNS
T-47D breast = tested on: T-47D breast
K-562 leukemia = tested on: K-562 leukemia
DU-145 prostate = tested on: DU-145 prostate
CAKI-1 renal = tested on: CAKI-1 renal
HT29 colon = tested on: HT29 colon
SF-539 CNS = tested on: SF-539 CNS
UO-31 renal = tested on: UO-31 renal
HL-60(TB) leukemia = tested on: HL-60(TB) leukemia
U251 CNS = tested on: U251 CNS
SK-MEL-28 melanoma = tested on: SK-MEL-28 melanoma
786-0 renal = tested on: 786-0 renal
OVCAR-3 ovarian = tested on: OVCAR-3 ovarian
NCI-H23 lung = tested on: NCI-H23 lung
M14 melanoma = tested on: M14 melanoma
SK-OV-3 ovarian = tested on: SK-OV-3 ovarian
HCT-15 colon = tested on: HCT-15 colon
NCI-H522 lung = tested on: NCI-H522 lung
SNB-75 CNS = tested on: SNB-75 CNS
NCI/ADR-RES ovarian = tested on: NCI/ADR-RES ovarian
HOP-92 NSCLC = tested on: HOP-92 NSCLC
A498 renal = tested on: A498 renal
HS 578T breast = tested on: HS 578T breast
HCT-116 colon = tested on: HCT-116 colon
TK-10 renal = tested on: TK-10 renal
NCI-H460 lung = tested on: NCI-H460 lung
MCF7 breast = tested on: MCF7 breast
HOP-62 NSCLC = tested on: HOP-62 NSCLC
CCRF-CEM leukemia = tested on: CCRF-CEM leukemia
SK-MEL-5 melanoma = tested on: SK-MEL-5 melanoma
EKVX NSCLC = tested on: EKVX NSCLC
RXF 393 renal = tested on: RXF 393 renal
SK-MEL-2 melanoma = tested on: SK-MEL-2 melanoma
MALME-3M melanoma = tested on: MALME-3M melanoma
RPMI-8226 leukemia = tested on: RPMI-8226 leukemia
NCI-H226 lung = tested on: NCI-H226 lung
KM12 colon = tested on: KM12 colon
ACHN renal = tested on: ACHN renal
UACC-257 melanoma = tested on: UACC-257 melanoma
COLO 205 colon = tested on: COLO 205 colon
HCC-2998 colon = tested on: HCC-2998 colon
OVCAR-8 ovarian = tested on: OVCAR-8 ovarian
SF-295 CNS = tested on: SF-295 CNS
OVCAR-5 ovarian = tested on: OVCAR-5 ovarian
MDA-MB-435 = tested on: MDA-MB-435
SW-620 colon = tested on: SW-620 colon
PC-3 prostate = tested on: PC-3 prostate
A549 NSCLC = tested on: A549 NSCLC

COc1ccc(-c2cc(-c3cn[nH]c3-c3ccccn3)ccn2)cc1
GI50 (BT-549 breast): > 25 µM
TGI (BT-549 breast): > 25 µM
GI50 (UACC-62 melanoma): > 25 µM
TGI (UACC-62 melanoma): > 25 µM
GI50 (SN12C renal): > 25 µM
TGI (SN12C renal): > 25 µM
GI50 (IGROV1 ovarian): > 25 µM
TGI (IGROV1 ovarian): > 25 µM
GI50 (SNB-19 CNS): > 25 µM
TGI (SNB-19 CNS): > 25 µM
GI50 (MDA-MB-231 breast): > 25 µM
TGI (MDA-MB-231 breast): > 25 µM
GI50 (LOX IMVI melanoma): > 25 µM
TGI (LOX IMVI melanoma): > 25 µM
GI50 (OVCAR-4 ovarian): > 25 µM
TGI (OVCAR-4 ovarian): > 25 µM
GI50 (MOLT-4 leukemia): > 25 µM
TGI (MOLT-4 leukemia): > 25 µM
GI50 (SF-268 CNS): > 25 µM
TGI (SF-268 CNS): > 25 µM
GI50 (T-47D breast): > 25 µM
TGI (T-47D breast): > 25 µM
GI50 (K-562 leukemia): 14 µM
TGI (K-562 leukemia): > 25 µM
GI50 (DU-145 prostate): > 25 µM
TGI (DU-145 prostate): > 25 µM
GI50 (CAKI-1 renal): > 25 µM
TGI (CAKI-1 renal): > 25 µM
GI50 (HT29 colon): > 25 µM
TGI (HT29 colon): > 25 µM
GI50 (SF-539 CNS): > 25 µM
TGI (SF-539 CNS): > 25 µM
GI50 (UO-31 renal): 20.4 µM
TGI (UO-31 renal): > 25 µM
GI50 (HL-60(TB) leukemia): > 25 µM
TGI (HL-60(TB) leukemia): > 25 µM
GI50 (U251 CNS): > 25 µM
TGI (U251 CNS): > 25 µM
GI50 (SK-MEL-28 melanoma): > 25 µM
TGI (SK-MEL-28 melanoma): > 25 µM
GI50 (786-0 renal): > 25 µM
TGI (786-0 renal): > 25 µM
GI50 (OVCAR-3 ovarian): > 25 µM
TGI (OVCAR-3 ovarian): > 25 µM
GI50 (NCI-H23 lung): > 25 µM
TGI (NCI-H23 lung): > 25 µM
GI50 (M14 melanoma): > 25 µM
TGI (M14 melanoma): > 25 µM
GI50 (SK-OV-3 ovarian): > 25 µM
TGI (SK-OV-3 ovarian): > 25 µM
GI50 (HCT-15 colon): > 25 µM
TGI (HCT-15 colon): > 25 µM
GI50 (NCI-H522 lung): > 25 µM
TGI (NCI-H522 lung): > 25 µM
GI50 (SNB-75 CNS): > 25 µM
TGI (SNB-75 CNS): > 25 µM
GI50 (NCI/ADR-RES ovarian): > 25 µM
TGI (NCI/ADR-RES ovarian): > 25 µM
GI50 (HOP-92 NSCLC): > 25 µM
TGI (HOP-92 NSCLC): > 25 µM
GI50 (A498 renal): > 25 µM
TGI (A498 renal): > 25 µM
GI50 (HS 578T breast): > 25 µM
TGI (HS 578T breast): > 25 µM
GI50 (HCT-116 colon): > 25 µM
TGI (HCT-116 colon): > 25 µM
GI50 (TK-10 renal): > 25 µM
TGI (TK-10 renal): > 25 µM
GI50 (NCI-H460 lung): > 25 µM
TGI (NCI-H460 lung): > 25 µM
GI50 (MCF7 breast): > 25 µM
TGI (MCF7 breast): > 25 µM
GI50 (HOP-62 NSCLC): > 25 µM
TGI (HOP-62 NSCLC): > 25 µM
GI50 (CCRF-CEM leukemia): > 25 µM
TGI (CCRF-CEM leukemia): > 25 µM
GI50 (SK-MEL-5 melanoma): > 25 µM
TGI (SK-MEL-5 melanoma): > 25 µM
GI50 (EKVX NSCLC): > 25 µM
TGI (EKVX NSCLC): > 25 µM
GI50 (RXF 393 renal): > 25 µM
TGI (RXF 393 renal): > 25 µM
GI50 (SK-MEL-2 melanoma): > 25 µM
TGI (SK-MEL-2 melanoma): > 25 µM
GI50 (MALME-3M melanoma): > 25 µM
TGI (MALME-3M melanoma): > 25 µM
GI50 (RPMI-8226 leukemia): > 25 µM
TGI (RPMI-8226 leukemia): > 25 µM
GI50 (NCI-H226 lung): > 25 µM
TGI (NCI-H226 lung): > 25 µM
GI50 (KM12 colon): > 25 µM
TGI (KM12 colon): > 25 µM
GI50 (ACHN renal): > 25 µM
TGI (ACHN renal): > 25 µM
GI50 (UACC-257 melanoma): > 25 µM
TGI (UACC-257 melanoma): > 25 µM
GI50 (COLO 205 colon): > 25 µM
TGI (COLO 205 colon): > 25 µM
GI50 (HCC-2998 colon): > 25 µM
TGI (HCC-2998 colon): > 25 µM
GI50 (OVCAR-8 ovarian): > 25 µM
TGI (OVCAR-8 ovarian): > 25 µM
GI50 (SF-295 CNS): > 25 µM
TGI (SF-295 CNS): > 25 µM
GI50 (OVCAR-5 ovarian): > 25 µM
TGI (OVCAR-5 ovarian): > 25 µM
GI50 (MDA-MB-435): > 19.2 µM
TGI (MDA-MB-435): > 25 µM
GI50 (SW-620 colon): > 25 µM
TGI (SW-620 colon): > 25 µM
GI50 (PC-3 prostate): > 25 µM
TGI (PC-3 prostate): > 25 µM
GI50 (A549 NSCLC): > 25 µM
TGI (A549 NSCLC): > 25 µM
